Measurements as given in US20240190874A1, “SMALL MOLECULE DEGRADERS OF ANDROGEN RECEPTOR” (THE REGENTS OF THE UNIVERSITY OF MICHIGAN, priority 2021, published 2024).

Tests used:
Format in all cases: cell-based
AR = biological target: T1, AR (Homo sapiens, UniProt P10275); assay: Degradation of AR in VCaP cells; conditions: VCaP cells; for Dmax: VCaP
T1 construct: Degradation of AR; Cellular potency; host or cells: VCaP cells
T1 sequence (P10275 1-920): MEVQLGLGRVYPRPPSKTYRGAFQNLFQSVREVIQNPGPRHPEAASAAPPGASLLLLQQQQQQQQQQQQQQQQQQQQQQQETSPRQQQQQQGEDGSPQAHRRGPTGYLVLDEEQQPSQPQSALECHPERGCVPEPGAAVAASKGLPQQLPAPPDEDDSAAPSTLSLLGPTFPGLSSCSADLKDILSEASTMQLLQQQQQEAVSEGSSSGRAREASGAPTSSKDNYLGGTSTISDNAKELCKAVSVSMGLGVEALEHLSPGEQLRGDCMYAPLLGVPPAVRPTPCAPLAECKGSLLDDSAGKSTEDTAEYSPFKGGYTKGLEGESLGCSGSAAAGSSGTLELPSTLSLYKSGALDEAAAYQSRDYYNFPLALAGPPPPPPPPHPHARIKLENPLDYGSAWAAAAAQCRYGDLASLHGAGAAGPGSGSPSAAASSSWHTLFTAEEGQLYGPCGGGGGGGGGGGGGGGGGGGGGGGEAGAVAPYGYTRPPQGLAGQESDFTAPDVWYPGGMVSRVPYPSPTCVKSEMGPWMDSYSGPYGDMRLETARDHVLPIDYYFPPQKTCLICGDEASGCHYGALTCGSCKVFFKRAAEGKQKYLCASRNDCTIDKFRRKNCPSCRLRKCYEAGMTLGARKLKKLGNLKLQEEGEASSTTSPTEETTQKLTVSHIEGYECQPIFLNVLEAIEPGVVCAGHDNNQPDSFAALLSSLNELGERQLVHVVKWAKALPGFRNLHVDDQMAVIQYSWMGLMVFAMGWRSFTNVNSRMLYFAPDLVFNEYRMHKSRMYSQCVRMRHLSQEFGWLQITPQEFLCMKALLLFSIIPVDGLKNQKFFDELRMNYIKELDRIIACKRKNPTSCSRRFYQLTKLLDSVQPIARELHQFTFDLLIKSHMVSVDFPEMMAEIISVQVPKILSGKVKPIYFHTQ
Experimental: (§1) Biological Assays. LNCaP and VCaP cells used were purchased from American Type Culture Collection (ATCC). LNCaP were grown in RPMI 1640 (Invitrogen) and VCaP cells were grown in DMEM with Glutamax (Invitrogen). All of the cells were supplemented with 10% fetal bovine serum (Invitrogen) at 37° C. in a humidified 5% CO2 incubator.

LNCaP cells = assay: Cellular potency (IC50) in LNCaP cells; conditions: Homo sapiens, LNCaP
Experimental: as §1

VCaP cells = assay: Cellular potency (IC50) in VCaP cells; conditions: Homo sapiens, VCaP
Experimental: as §1

Row | Structure (SMILES) | DC50 (AR) | Dmax (AR) | IC50 (LNCaP cells) | IC50 (VCaP cells)
1 | C[C@H]1CC2(CCN(c3ccc(N4CCN(CC5CN(c6ccc7c(c6)C(=O)N(C6CCC(=O)NC6=O)C7=O)C5)CC4)nn3)CC2)CN1c1ccc(C#N)c(Cl)c1 (stereo partly drawn) [compound 47] | < 0.001 µM | > 90% | < 0.01 µM | < 0.01 µM
2 | C[C@H]1CC2(CCN(c3ccc(N4CCN(C5CN(c6ccc7c(c6)C(=O)N(C6CCC(=O)NC6=O)C7=O)C5)CC4)cc3)CC2)CN1c1ccc(C#N)c(Cl)c1 (stereo partly drawn) [compound 27] | < 0.001 µM | > 90% | < 0.01 µM | < 0.01 µM
3 | C[C@H]1CC2(CCN(c3ccc(CN4CCN(C5CCN(c6ccc7c(c6)C(=O)N(C6CCC(=O)NC6=O)C7=O)CC5)CC4)nc3)CC2)CN1c1ccc(C#N)c(Cl)c1 (stereo partly drawn) [compound 182] | < 0.001 µM | – | < 0.01 µM | < 0.1 µM
4 | C[C@H]1CC2(CCN(c3ccc(CN4CCN(C5CN(c6cc7c(cc6F)C(=O)N(C6CCC(=O)NC6=O)C7=O)C5)CC4)nn3)CC2)CN1c1ccc(C#N)c(Cl)c1 (stereo partly drawn) [compound 174] | < 0.001 µM | – | < 0.01 µM | < 0.01 µM
5 | C[C@H]1CC2(CCN(c3ccc(OC4CCN(C5CN(c6ccc7c(c6)C(=O)N(C6CCC(=O)NC6=O)C7=O)C5)CC4)nc3)CC2)CN1c1ccc(C#N)c(Cl)c1 (stereo partly drawn) [compound 63] | < 0.001 µM | > 90% | < 0.01 µM | < 0.01 µM
6 | C[C@H]1CC2(CCN(c3ccc(CN4CCC(N5CCN(c6ccc7c(c6)C(=O)N(C6CCC(=O)NC6=O)C7=O)CC5)CC4)cn3)CC2)CN1c1ccc(C#N)c(Cl)c1 (stereo partly drawn) [compound 166] | < 0.01 µM | – | < 0.1 µM | < 0.01 µM
7 | C=C1CCC(N2C(=O)c3ccc(N4CCC(CN5CCN(c6ccc(N7CCC8(CC7)C[C@H](C)N(c7ccc(C#N)c(Cl)c7)C8)c(F)c6)CC5)CC4)cc3C2=O)C(=O)N1 (stereo partly drawn) [compound 38] | – | > 90% | < 0.01 µM | < 0.01 µM
8 | C[C@H]1CC2(CCN(c3ccc(C(=O)N4CCC(N5CCOc6cc7c(cc6C5)C(=O)N(C5CCC(=O)NC5=O)C7=O)CC4)cc3)CC2)CN1c1ccc(C#N)c(Cl)c1 (stereo partly drawn) [compound 194] | < 0.01 µM | – | < 0.01 µM | < 0.1 µM
